Laboratory results from patent US20200179312A1, “ANALOGUES OF CYSTEAMINE AS THERAPEUTIC AGENTS FOR CYSTIC FIBROSIS” (I.E.R.F.C. EUROPEAN INSTITUTE FOR CYSTIC FIBROSIS RESEARCH, priority 2018, published 2020).

Tests used:
TG2 = target: T1, TG2 (Homo sapiens, UniProt P21980); assay: Inhibition of the PDI activity of TG2; assay type: biochemical
T1 sequence (P21980 1-687): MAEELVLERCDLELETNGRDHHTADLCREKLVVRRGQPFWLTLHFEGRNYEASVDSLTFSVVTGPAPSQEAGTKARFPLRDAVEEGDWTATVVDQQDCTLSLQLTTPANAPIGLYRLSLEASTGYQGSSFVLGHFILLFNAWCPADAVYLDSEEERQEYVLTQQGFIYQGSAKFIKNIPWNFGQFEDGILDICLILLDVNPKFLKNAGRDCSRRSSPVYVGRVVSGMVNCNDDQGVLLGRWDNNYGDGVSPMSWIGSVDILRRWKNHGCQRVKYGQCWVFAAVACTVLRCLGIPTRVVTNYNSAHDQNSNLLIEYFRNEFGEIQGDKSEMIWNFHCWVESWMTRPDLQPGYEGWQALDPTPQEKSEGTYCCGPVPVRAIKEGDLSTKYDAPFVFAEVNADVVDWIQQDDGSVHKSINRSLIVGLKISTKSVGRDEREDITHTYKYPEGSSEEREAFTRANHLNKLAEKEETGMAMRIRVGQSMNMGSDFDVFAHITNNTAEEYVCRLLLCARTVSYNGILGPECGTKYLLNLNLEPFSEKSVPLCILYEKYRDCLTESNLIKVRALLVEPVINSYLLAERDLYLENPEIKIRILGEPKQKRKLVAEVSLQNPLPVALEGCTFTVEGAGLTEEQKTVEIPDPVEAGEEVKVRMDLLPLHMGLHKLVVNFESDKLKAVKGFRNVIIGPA

CFTR [1] = target: T2, CFTR (Mus musculus, UniProt P26361, DEL508-508); assay: Immunoblot of CFTR protein levels in tissues of CftrF508del mice; assay type: in vivo; conditions: i.p. 5 d, then 20 d of wash out, lung and small intestinal tissue
T2 construct: the Ussing chamber experiments (on small intestinal tissues); from tissue; host or cells: small intestine (Ussing chamber); lung and small intestine homogenates (immunoblot) of CftrF508del mice
T2 sequence (P26361 with tags, fused parts or gaps DEL508-508): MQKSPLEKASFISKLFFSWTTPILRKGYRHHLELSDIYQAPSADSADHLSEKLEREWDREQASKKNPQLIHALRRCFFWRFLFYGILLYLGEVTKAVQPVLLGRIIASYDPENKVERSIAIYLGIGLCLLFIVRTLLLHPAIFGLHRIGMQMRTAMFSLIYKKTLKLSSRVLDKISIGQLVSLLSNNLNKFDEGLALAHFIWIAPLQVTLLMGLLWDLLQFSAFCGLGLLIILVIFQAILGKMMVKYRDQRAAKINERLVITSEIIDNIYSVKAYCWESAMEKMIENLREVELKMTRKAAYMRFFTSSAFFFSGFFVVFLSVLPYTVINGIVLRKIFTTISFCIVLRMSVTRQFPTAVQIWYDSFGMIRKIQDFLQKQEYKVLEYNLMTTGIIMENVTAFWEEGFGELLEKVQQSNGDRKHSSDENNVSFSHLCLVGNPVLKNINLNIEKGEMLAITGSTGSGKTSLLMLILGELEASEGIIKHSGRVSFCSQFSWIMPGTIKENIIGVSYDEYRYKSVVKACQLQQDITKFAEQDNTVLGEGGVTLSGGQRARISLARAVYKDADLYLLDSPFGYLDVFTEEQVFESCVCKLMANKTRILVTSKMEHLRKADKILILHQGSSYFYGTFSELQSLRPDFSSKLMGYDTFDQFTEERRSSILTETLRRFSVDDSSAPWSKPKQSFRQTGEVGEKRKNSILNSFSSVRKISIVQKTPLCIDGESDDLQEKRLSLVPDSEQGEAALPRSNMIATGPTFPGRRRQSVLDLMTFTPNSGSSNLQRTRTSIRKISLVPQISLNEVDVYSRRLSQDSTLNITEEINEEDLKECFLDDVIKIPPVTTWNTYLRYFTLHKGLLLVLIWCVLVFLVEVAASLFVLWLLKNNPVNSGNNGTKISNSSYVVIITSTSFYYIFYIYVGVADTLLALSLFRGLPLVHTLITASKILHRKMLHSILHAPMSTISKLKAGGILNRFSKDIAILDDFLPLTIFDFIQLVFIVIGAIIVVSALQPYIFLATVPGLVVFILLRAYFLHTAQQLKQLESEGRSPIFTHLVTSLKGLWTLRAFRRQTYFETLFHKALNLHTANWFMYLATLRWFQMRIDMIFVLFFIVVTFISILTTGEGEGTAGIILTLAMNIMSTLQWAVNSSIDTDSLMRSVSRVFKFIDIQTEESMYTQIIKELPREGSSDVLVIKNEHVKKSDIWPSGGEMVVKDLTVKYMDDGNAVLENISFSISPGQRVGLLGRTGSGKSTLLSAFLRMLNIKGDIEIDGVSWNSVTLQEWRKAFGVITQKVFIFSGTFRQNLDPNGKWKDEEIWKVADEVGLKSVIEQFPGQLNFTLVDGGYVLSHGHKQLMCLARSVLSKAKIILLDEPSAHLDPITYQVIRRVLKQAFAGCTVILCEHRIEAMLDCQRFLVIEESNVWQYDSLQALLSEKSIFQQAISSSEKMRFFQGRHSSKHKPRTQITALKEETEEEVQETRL
From the text: (§1) CF mice homozygous for the delF508-CFTR mutation (abbreviated CftrF508del) in the 129/FVB outbred background (CftrtmlEUR, F508del, FVB/129) were obtained from Erasmus Medical Center Rotterdam, The Netherlands (CF coordinated action program EU FP6 LSHM-CT-2005-018932). These studies and procedures were approved by the local Ethics Committee for Animal Welfare (IACUC No 713). Young adult CF mice and their wild-type (wt) littermates were housed in static isolator cages at the animal care specific pathogen-free facility of Charles River (Calco, Italy). CftrF508del mice were treated with daily intraperitoneal injections of cysteamine (100 μl of 0.05 M in PBS) (Sigma Aldrich, M9768) or IE1 (100 μl of 0.075-0.05-0.025-0.0125 M, in PBS) for 5 d or with cysteamine (5 d) or IE1 different concentrations followed by 10 d or 20 d of PBS alone (n=5 mice per group) (19,20).
(§2) The proteins of cell lines lysates or lung or small intestine homogenates, obtained from treated and untreated cells or mice, were quantified by a Bio-Rad protein assay to ensure equal protein loading before immunoblot analysis. Fifty micrograms of proteins were loaded in each lane. […]

[2] = system: BECN1, (phospho)p42/44 MAPK; assay: Immunoblot of whole homogenates from intestinal and lung tissues of CftrF508del mice; assay type: in vivo
From the text: as §1, §2

TNF alpha, MIP-2 = assay: ELISA of inflammatory cytokines in tissues of CftrF508del mice; assay type: in vivo; conditions: intestinal and lung tissues
From the text: as §1
ELISA. ELISA was performed on tissue samples using standard ELISA kits (R&D Systems) for TNF-α, Mip2a. According to the manufacturer's instructions, samples were read in triplicate at 450 nm in a microplate Reader (Bio-Rad, Milan, Italy) using Microplate Manager 5.2.1 software.
Values were normalized to protein concentration evaluated by Bradford analysis.

CFTR [3] = target: CFTR (Homo sapiens, UniProt P13569, DEL508-508); assay: Immunoblot detection of CFTR in CFBE cells; assay type: cell-based; set-up: expressed in transfected cells; host or cells: CFBE41o- cells
Chain of CFTR (Homo sapiens, UniProt P13569, DEL508-508) (P13569 with tags, fused parts or gaps DEL508-508): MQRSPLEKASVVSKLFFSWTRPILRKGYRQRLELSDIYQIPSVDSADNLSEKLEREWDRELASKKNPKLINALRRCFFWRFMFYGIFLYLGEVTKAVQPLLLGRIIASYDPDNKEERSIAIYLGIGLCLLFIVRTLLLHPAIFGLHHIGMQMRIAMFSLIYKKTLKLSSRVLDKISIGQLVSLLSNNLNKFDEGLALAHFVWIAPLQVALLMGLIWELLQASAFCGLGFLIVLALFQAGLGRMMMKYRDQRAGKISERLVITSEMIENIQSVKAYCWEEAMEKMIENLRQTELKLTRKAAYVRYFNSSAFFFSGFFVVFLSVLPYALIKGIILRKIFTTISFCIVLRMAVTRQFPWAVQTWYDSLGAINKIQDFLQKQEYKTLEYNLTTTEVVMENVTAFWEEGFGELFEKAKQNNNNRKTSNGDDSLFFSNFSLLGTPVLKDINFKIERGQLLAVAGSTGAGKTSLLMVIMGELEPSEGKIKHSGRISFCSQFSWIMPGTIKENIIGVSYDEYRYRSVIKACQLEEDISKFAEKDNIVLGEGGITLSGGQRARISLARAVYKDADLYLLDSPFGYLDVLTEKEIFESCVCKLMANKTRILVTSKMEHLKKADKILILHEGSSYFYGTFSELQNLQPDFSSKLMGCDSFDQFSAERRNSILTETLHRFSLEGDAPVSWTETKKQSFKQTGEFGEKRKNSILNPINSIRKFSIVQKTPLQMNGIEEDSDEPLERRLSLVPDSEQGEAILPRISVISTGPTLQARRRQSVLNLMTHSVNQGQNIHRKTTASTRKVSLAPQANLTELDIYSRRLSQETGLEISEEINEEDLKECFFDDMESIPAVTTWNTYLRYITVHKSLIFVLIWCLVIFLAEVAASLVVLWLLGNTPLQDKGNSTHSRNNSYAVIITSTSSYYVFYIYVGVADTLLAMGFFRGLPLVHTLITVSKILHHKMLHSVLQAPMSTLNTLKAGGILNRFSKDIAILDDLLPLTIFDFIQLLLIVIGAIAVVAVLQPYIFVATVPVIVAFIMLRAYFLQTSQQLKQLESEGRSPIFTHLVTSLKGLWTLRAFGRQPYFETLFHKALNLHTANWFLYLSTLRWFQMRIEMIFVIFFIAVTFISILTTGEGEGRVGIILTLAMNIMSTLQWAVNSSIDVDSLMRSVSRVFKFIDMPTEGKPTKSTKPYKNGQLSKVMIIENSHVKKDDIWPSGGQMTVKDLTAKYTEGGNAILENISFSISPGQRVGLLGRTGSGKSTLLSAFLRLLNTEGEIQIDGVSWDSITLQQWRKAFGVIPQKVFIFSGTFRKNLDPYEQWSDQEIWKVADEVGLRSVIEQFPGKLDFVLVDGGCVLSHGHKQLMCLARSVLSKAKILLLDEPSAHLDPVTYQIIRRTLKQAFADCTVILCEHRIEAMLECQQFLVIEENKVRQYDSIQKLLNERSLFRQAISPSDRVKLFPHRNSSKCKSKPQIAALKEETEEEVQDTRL
Method: Cell lines experiments. CFBE41l- and 16HBE14o-cells were cultured in Minimum Essential Medium (MEM) with Earle's salt, 200 mM L-Glutamine, 10% FBS and penicillin/streptomycin. CFBE41o-cells were transfected with AF508-CFTR at 37° C. and incubated for 18 h with cysteamine (250 μM) or different concentration of IE1.
The proteins of cell lines lysates or lung or small intestine homogenates, obtained from treated and untreated cells or mice, were quantified by a Bio-Rad protein assay to ensure equal protein loading before immunoblot analysis. Fifty micrograms of proteins were loaded in each lane. Antibodies against SQSTM1, (Sigma Aldrich,P0067) 1:1000, BECN1 (Abcam, ab58878), 1:1000, CFTR clone CF3 (Abcam, ab2784) 1:1000 or anti-CFTR antibody 660 1:1000, Phospho-p44/42 MAPK (Erk1/2) (Thr202/Tyr204) (Cell Signaling Technology, #91101) 1:1000, TG2 (CUB7402, NEOMARKER) 1:1000 were used. Normalization was performed by probing the membrane with anti-β-actin (Cell Signaling, #4970) 1:1000 or anti-α-tubulin (Cell Signaling Technology, 2148) 1:1000.

Ability to inhibit the PDI activity of TG2 (TG2): confirmed
PM-resident CFTR protein after washout (CFTR [3]; 0.1 μM, 24 h of washout): maintained
PM-resident CFTR protein after washout (CFTR [3]; 48 h of washout): decreases
PM-resident CFTR protein after washout with EGCG added (CFTR [3]; 48 h of washout, EGCG added): completely maintained
SMILES: NCCCS [IE1, 3-aminopropane-1-thiol]
CFTR protein levels after wash out (immunoblot) (CFTR [1]): sustaining the protein well beyond 20 d of wash out
BECN1 in whole homogenates [2]: able to restore BECN1
Biomarkers (phospho)p42/44 MAPK in whole homogenates [2]: decrease biomarkers (phospho)p42/44 MAPK
MIP-2 (TNF alpha, MIP-2): decrease principal inflammatory cytokines
TNF alpha (TNF alpha, MIP-2): decrease principal inflammatory cytokines
PM-resident CFTR protein (CFTR [3]; 0.1 μM): a sizeable fraction of the channel resided at the PM
